Assay results taken from patent US10052293B2, “Curcumin infused milk beverage and a process for the preparation thereof” (priority 2016, dated 2018).

Experiments:
[1] = pH of Curcumin dissolved in water; type: physicochemical
Method: The prior art as described in above paragraphs clearly points that Curcumin is unstable in an alkaline solution and loses its golden yellow colour above a pH of 7.5. When pure Curcumin (95%) is dissolved in water, it gives a pH of 6.1. Even at a concentration of 30% solution of Curcumin, prepared by 30 gms of Curcumin in 70 gm hot water, kept in water bath at 55 degrees Celsius for 10 minutes and cooled to 25 degrees Celsius, it has an acidic pH. This Acidic pH of Curcumin is not suitable for making flavoured milk products. Any ingredient having pH less than 6.4 adversely affect milk proteins. The present invention solves this problem by optimizing the exact pH of Curcumin infused milk beverage so that the properties of beverage are preserved and good dispersibility and stability of Curcumin is obtained in the final composition.

[2] = Water solubility of Curcumin; type: physicochemical; settings: 95% pure Curcumin
Method: The particle size of the Curcumin is about 125 micrometers and 95% of Curcumin can pass through 125 micrometers sieve and rest 5% is larger than 125 micrometers. In the final product, the Curcumin concentration is kept at a low concentration of 0.05% (wt/wt percentage for a batch). The concentration of Curcumin can go up to 0.15%. (wt/wt percentage for a batch) for particular milk beverage products. Thus, in an exemplary situation a 160 ml package of this milk beverage has approximately 80 mg of Curcumin and which can go up to 240 mg as required for ingestion.

pH ([1]; 30% solution: 30 gms Curcumin in 70 gm hot water, 55 degrees Celsius 10 minutes, cooled to 25 degrees Celsius): acidic pH
pH ([1]; pure Curcumin (95%) dissolved in water): 6.1
water solubility [2]: water insoluble
SMILES: COc1cc(/C=C/C(=O)CC(=O)/C=C/c2ccc(O)c(OC)c2)ccc1O [Curcumin, diferuloylmethane]
